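Five compound concentrations were applied to cells in 96-well plates for 48 hours; endpoints were derived by simple linear interpolation of the resulting dose-response curve. GI50: concentration for 50% inhibition of growth.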 Calls of active or inactive are those of the source. Rule as the data show it: active = GI50 up to about 1.1 µM and inactive = higher.
Key:
Test in all cases: NCI anticancer screen, dose series, 48 h
U-251 = test system: U-251
HCC 2998 = test system: HCC 2998
EKVX = test system: EKVX
ACHN = test system: ACHN
SN12C = test system: SN12C
NCI-H522 = test system: NCI-H522
UACC-257 = test system: UACC-257
OVCAR-5 = test system: OVCAR-5
MOLT-4 = test system: MOLT-4
SK-MEL-28 = test system: SK-MEL-28
A549 = test system: A549
DLD-1 = test system: DLD-1
NCI-H23 = test system: NCI-H23
HCT-116 = test system: HCT-116
MDA-N = test system: MDA-N
MCF7 = test system: MCF7
T47D = test system: T47D
BT-549 = test system: BT-549
NCI/ADR-RES = test system: NCI/ADR-RES
MDA-MB-231 = test system: MDA-MB-231

| Structure (SMILES) | GI50 (U-251) | GI50 (HCC 2998) | GI50 (EKVX) | GI50 (ACHN) | GI50 (SN12C) | GI50 (NCI-H522) | GI50 (UACC-257) | GI50 (OVCAR-5) | GI50 (MOLT-4) | GI50 (SK-MEL-28) | GI50 (A549) | GI50 (DLD-1) | GI50 (NCI-H23) | GI50 (HCT-116) | GI50 (MDA-N) | GI50 (MCF7) | GI50 (T47D) | GI50 (BT-549) | GI50 (NCI/ADR-RES) | GI50 (MDA-MB-231) |
| --- | --- | --- | --- | --- | --- | --- | --- | --- | --- | --- | --- | --- | --- | --- | --- | --- | --- | --- | --- | --- |
| CCCCCCCCCCOC(=O)NCCC | 24.9 µM (inactive) | 18.2 µM (inactive) | 25.9 µM (inactive) | 28.8 µM (inactive) | 28 µM (inactive) | 18.7 µM (inactive) | 30.2 µM (inactive) | 24.4 µM (inactive) | 17.2 µM (inactive) | 28.8 µM (inactive) | 36.6 µM (inactive) | 34.8 µM (inactive) | 33.1 µM (inactive) | – | – | – | – | – | – | – |
| O=C(CC1(O)C(=O)Nc2c(Cl)cc(Cl)cc21)c1ccc(F)cc1 (stereo not given) | 31.3 µM (inactive) | 40 µM (inactive) | 68.7 µM (inactive) | 35.9 µM (inactive) | 28.4 µM (inactive) | – | 27.6 µM (inactive) | 64.7 µM (inactive) | – | 71.6 µM (inactive) | 59 µM (inactive) | 46.8 µM (inactive) | 28.5 µM (inactive) | 35.4 µM (inactive) | – | – | – | – | – | – |
| Cc1cc(C)nc(NS(=O)(=O)c2ccc(NC(=O)c3cccc4cc5ccccc5nc34)cc2)n1 | 30.6 µM (inactive) | – | 69.8 µM (inactive) | 44.3 µM (inactive) | 28.5 µM (inactive) | 18.7 µM (inactive) | 37.3 µM (inactive) | 62.2 µM (inactive) | 19.6 µM (inactive) | 31.2 µM (inactive) | 34.3 µM (inactive) | 27.5 µM (inactive) | 25.9 µM (inactive) | 17.2 µM (inactive) | – | – | – | – | – | – |
| COC(=O)CCSC(=O)Nc1ccccc1Cl | > 100 µM (inactive) | > 100 µM (inactive) | > 100 µM (inactive) | > 100 µM (inactive) | > 100 µM (inactive) | 1.36 µM (inactive) | > 100 µM (inactive) | > 100 µM (inactive) | > 100 µM (inactive) | > 100 µM (inactive) | > 100 µM (inactive) | > 100 µM (inactive) | > 100 µM (inactive) | > 100 µM (inactive) | – | – | – | – | – | – |
| Cc1ccc(/C=N/NS(=O)(=O)c2ccccc2)cc1 | > 100 µM (inactive) | > 100 µM (inactive) | > 100 µM (inactive) | > 100 µM (inactive) | > 100 µM (inactive) | – | > 100 µM (inactive) | > 100 µM (inactive) | > 100 µM (inactive) | > 100 µM (inactive) | > 100 µM (inactive) | > 100 µM (inactive) | > 100 µM (inactive) | > 100 µM (inactive) | – | – | – | – | – | – |
| CC1(C)C(O)OC(O)C1(C)C (stereo not given) | > 100 µM (inactive) | > 100 µM (inactive) | > 100 µM (inactive) | > 100 µM (inactive) | 82.2 µM (inactive) | – | 34.5 µM (inactive) | > 100 µM (inactive) | 49.2 µM (inactive) | 43.4 µM (inactive) | > 100 µM (inactive) | 52.5 µM (inactive) | – | 33.9 µM (inactive) | – | – | – | – | – | – |
| COC1(C)C(=O)N2C1N(C(=O)OCc1ccccc1)CC2(C)C (stereo not given) | > 100 µM (inactive) | > 100 µM (inactive) | > 100 µM (inactive) | > 100 µM (inactive) | > 100 µM (inactive) | – | > 100 µM (inactive) | – | > 100 µM (inactive) | > 100 µM (inactive) | > 100 µM (inactive) | > 100 µM (inactive) | > 100 µM (inactive) | > 100 µM (inactive) | – | – | – | – | – | – |
| C=C1C(C(O)C[C@H](C)C2O[C@@]3(CCCCO3)CCC2C)O[C@@H]2CCC3(CCC(/C=C/[C@@H](C)C4CC(C)=CC5(O4)O[C@H](C[C@](C)(O)C(=O)O)CCC5O)O3)OC2[C@@H]1O (stereo not given in full) | 0.00105 µM (active) | 0.00171 µM (active) | 0.00614 µM (active) | 0.0191 µM (active) | 0.0127 µM (active) | 0.00182 µM (active) | 0.00839 µM (active) | 0.00826 µM (active) | 0.0122 µM (active) | 0.00227 µM (active) | 0.0267 µM (active) | – | 0.00819 µM (active) | 0.00381 µM (active) | 0.00117 µM (active) | 0.0065 µM (active) | 0.0326 µM (active) | 0.00681 µM (active) | 0.128 µM (active) | 0.00411 µM (active) |
| O=C(N/C(=C\c1cccc([N+](=O)[O-])c1)c1nc2c3c(ccc2[nH]1)C(=O)c1ccccc1C3=O)c1ccccc1 | 34.8 µM (inactive) | – | 12.8 µM (inactive) | 16.6 µM (inactive) | 28 µM (inactive) | 16.5 µM (inactive) | – | 26.5 µM (inactive) | – | 19.9 µM (inactive) | 30.9 µM (inactive) | 12.2 µM (inactive) | 30.3 µM (inactive) | 31.6 µM (inactive) | – | – | – | – | – | – |
| COc1ccc(C(c2ccc(C(C)C)cc(OC)c2=O)c2ccc(C(C)C)cc(OC)c2=O)cc1 | 13.7 µM (inactive) | – | 13.6 µM (inactive) | – | 16.1 µM (inactive) | 14.4 µM (inactive) | 15.5 µM (inactive) | 20.1 µM (inactive) | 7.53 µM (inactive) | – | 12 µM (inactive) | 6.3 µM (inactive) | 16.3 µM (inactive) | 11.1 µM (inactive) | – | – | – | – | – | – |
